# Data published in US10548984B2 (priority 2015, dated 2020).
# Non-standard residues stand in square brackets, D forms with d. Residues, ends and D or L forms follow the SMILES beside them.
# Assays:
# [1] = tested on: mice; assay: Immunogenicity study (serum antibody ELISA); assay type: in vivo, mouse; conditions: i.v. injection
# Description: Mice were injected intravenously with 50 μg of siRNA complexed with either the Test-Peptide or Test-RI Peptide vectors, with the peptide vector alone or with PBS as negative control for three consecutive days, and then on every alternate day for 14 days. […] To detect the presence of antibodies to the Test-Peptide or Test-RI-peptide, serum was collected from the mice on day 21 and serial double dilution (1:100 followed by 10 dilutions) of the sera was incubated in 384 well microtitre plate coated with either Test-Peptide or Test-RI-peptide (50 ng/well). The bound antibody was detected with a goat anti-mouse Ig-HRP conjugate.
# [2] = tested on: mice; conditions: mouse, in vivo
# [3] = tested on: nAchRs present on M17 cells; assay: Competitive binding assay and immunocytochemistry of biotinylated peptide on M17 cells; design: species or system human; conditions: avidin-FITC
# Description: To confirm that the binding specificity of the peptide to the neuronal cells was mediated by its binding to nAchRs, a competition assay was performed using alpha bangarotoxin (BTX) peptide, which is a competitive antagonist for nAchRs.
# M17 cells were incubated with the biotinylated-peptide (SEQ ID NO:2) (2.5 μM) in the absence or presence of BTX peptide (0.01 μM or 0.1 μM) at 4° C. for 1 hr, stained with avidin-FITC and analyzed by FACS.
# Immunocytochemistry was used to confirm the binding of the peptide (SEQ ID NO:2) to M17 cells. M17 cells were incubated with or without biotinylated-peptides (SEQ ID NO:2) or with the MAT peptide which served as a negative control. The cells were then stained with avidin-FITC and viewed by fluorescence microscopy.
Compound,antibody response [1],production of inflammatory cytokines [2],"binding of peptide to M17 cells (FITC-positive immunostaining) ([3]; biotinylated peptide, fluorescence microscopy)","inhibition of biotinylated-peptide (SEQ ID NO:2) binding to M17 cells ([3]; peptide 2.5 μM, BTX 0.01 μM or 0.1 μM, 4° C., 1 hr, FACS)"
"CC[C@@H](C)[C@@H](NC(=O)[C@@H](Cc1ccccc1)NC(=O)[C@H](NC(=O)[C@@H](CC(N)=O)NC(=O)[C@@H](CO)NC(=O)[C@@H](CCCNC(=N)N)NC(=O)CNC(=O)[C@@H](CCCCN)NC(=O)CN(C)C(=O)CN(C)C(=O)CN(C)C(=O)CN(C)C(=O)[C@@H](CCCNC(=N)N)NC(=O)[C@@H](CCCNC(=N)N)NC(=O)[C@@H](CCCNC(=N)N)NC(=O)[C@@H](CCCNC(=N)N)NC(=O)[C@@H](CCCNC(=N)N)NC(=O)[C@@H](CCCNC(=N)N)NC(=O)[C@@H](CCCNC(=N)N)NC(=O)[C@@H](CCCNC(=N)N)NC(=O)[C@H](N)CCCNC(=N)N)[C@H](C)O)C(=O)N[C@H](CC(=O)O)C(=O)N[C@H](CS)C(=O)O [Test-RI-peptide, H-rrrrrrrrr-Sar-Sar-Sar-Sar-kGrsntfidc]",did not elicit an antibody response,did not elicit an antibody response or result in the production inflammatory cytokines,,
"CDIFTNSRGK [peptide (SEQ ID NO:2), RVG derived 10 residue peptide]",,,binds specifically to neuronal cells,
CC[C@H](C)[C@H](NC(=O)[C@H](CC(=O)O)NC(=O)[C@@H](N)CS)C(=O)N[C@@H](Cc1ccccc1)C(=O)N[C@H](C(=O)N[C@@H](CC(N)=O)C(=O)N[C@@H](CO)C(=O)N[C@@H](CCCNC(=N)N)C(=O)NCC(=O)N[C@@H](CCCCN)C(=O)NCC(=O)NCC(=O)NCC(=O)NCC(=O)N[C@H](CCCNC(=N)N)C(=O)N[C@H](CCCNC(=N)N)C(=O)N[C@H](CCCNC(=N)N)C(=O)N[C@H](CCCNC(=N)N)C(=O)N[C@H](CCCNC(=N)N)C(=O)N[C@H](CCCNC(=N)N)C(=O)N[C@H](CCCNC(=N)N)C(=O)N[C@H](CCCNC(=N)N)C(=O)N[C@H](CCCNC(=N)N)C(=O)O)[C@@H](C)O [Test-peptide] (H-CDIFTNSRGKGGGG[dR][dR][dR][dR][dR][dR][dR][dR][dR]-OH; C-terminus assumed),did not elicit an antibody response,did not elicit an antibody response or result in the production inflammatory cytokines,,
"alpha bangarotoxin [BTX, reference compound]",,,,inhibited peptide binding to M17 cells in a dose-dependent manner
